Results from US20190053492A1, “SUBSTITUTED PYRIDINE COMPOUNDS AS PESTICIDES” (Bayer CropScience Aktiengesellschaft, priority 2016, published 2019).
Read-outs that look alike come from different tables or passages of the source.

Assays:
[1] = log P by HPLC on reversed-phase column (C 18), EEC Directive 79/831 Annex V.A8; type: physicochemical; details: 55° C.; for LOGP_HCOOH: log P (HCOOH); for chromatographic logP: reversed-phase HPLC column (C 18)
Protocol: Temperature: 55° C. […] Called log P (HCOOH) in the table. […] Called log P (neutral) in the table.

Phaedon cochleariae = Phaedon cochleariae spray test; type: in vivo; details: after 7 days, Chinese cabbage leaf discs; for pest or weed control at 500 g/ha: Phaedon cochleariae, foliar, 168 h, read-out: efficacy (beetle larvae killed)
Protocol: Phaedon cochleariae—Spray Test
Solvent: 78.0 parts by weight of acetone • • 1.5 parts by weight of dimethylformamide
Emulsifier: alkylaryl polyglycol ether
To produce a suitable active ingredient formulation, 1 part by weight of active ingredient is dissolved with the specified parts by weight of solvent and made up with water containing an emulsifier concentration of 1000 ppm until the desired concentration is attained. To produce further test concentrations, the formulation is diluted with emulsifier-containing water.
Discs of Chinese cabbage leaves (Brassica pekinensis) are sprayed with an active ingredient formulation of the desired concentration and, after drying, populated with larvae of the mustard beetle (Phaedon cochleariae).
After 7 days, the efficacy in % is determined. 100% means that all the beetle larvae have been killed; 0% means that no beetle larvae have been killed.

Spodoptera frugiperda = Spodoptera frugiperda spray test; type: in vivo; details: after 7 days, maize leaf discs
How it was run: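 Maize leaf discs were sprayed with compound formulated in acetone/DMF and emulsifier-containing water, dried, then infested with Spodoptera frugiperda caterpillars. Percent kill was scored after 7 days, from 100% (all dead) to 0% (none dead).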

[2] = acidic range pH 2.7, 0.1% aqueous formic acid and acetonitrile, reversed-phase column (C 18)
[3] = log P, neutral range, HPLC on reversed-phase column (C 18)
[4] = log P (neutral), HPLC reversed-phase column (C 18)
[5] = pH 2.7, LC-MS acidic range, pH 2.7, 0.1% formic acid/acetonitrile, read-out: log P (acidic) / log P (HCOOH)
[6] = pH 7.8, LC-MS neutral range, pH 7.8, ammonium hydrogencarbonate/acetonitrile, read-out: log P (neutral)
[7] = Spodoptera frugiperda, foliar, 168 h, application rate 500 g/ha, read-out: efficacy (caterpillars killed)

| SMILES | LOGP_HCOOH [1, 2] | efficacy (beetle larvae killed) (Phaedon cochleariae; application rate 100 g/ha) | efficacy (beetle larvae killed) (Phaedon cochleariae; application rate 500 g/ha) | efficacy (caterpillars killed) (Spodoptera frugiperda; application rate 100 g/ha) | efficacy (caterpillars killed) (Spodoptera frugiperda; application rate 500 g/ha) | LOGP_NEUTRAL [1, 3] | LOGP_NEUTRAL [1, 4] | LOGP_HCOOH ([1]; acidic range at pH 2.7, 0.1% aqueous formic acid and acetonitrile, HPLC on reversed-phase column (C 18)) | chromatographic logP [1, 5] | chromatographic logP [1, 6] | pest or weed control at 500 g/ha (Phaedon cochleariae; application rate 500 g/ha) | pest or weed control at 100 g/ha (Spodoptera frugiperda; Spodoptera frugiperda, foliar, 168 h, application rate 100 g/ha, read-out: efficacy (caterpillars killed)) | pest or weed control at 500 g/ha (Spodoptera frugiperda; [7]) | chromatographic logP ([1]; pH 2.7, log P (HCOOH), acidic range pH 2.7, 0.1% aqueous formic acid and acetonitrile, reversed-phase column (C 18), read-out: LOGP_HCOOH) |
| --- | --- | --- | --- | --- | --- | --- | --- | --- | --- | --- | --- | --- | --- | --- |
| O=C(NC1CC1)c1cc(-c2ccc(C(F)(F)C(F)(F)F)c(F)c2)cc(NC(=O)C2CC2)n1 [Example I-243] | 3.94 | 100% | 100% | 100% | 100% |  |  |  |  |  |  |  |  |  |
| CCCCNC(=O)c1cc(-c2ccc(C(F)(F)F)cc2)cc(NC(=O)C2CC2)n1 [Example I-037] | 4.05 |  | 83% | 83% | 100% | 3.98 |  |  |  |  |  |  |  |  |
| O=C(NCCC(F)(F)F)c1cc(-c2ccc(C(F)(F)C(F)(F)F)c(F)c2)cc(NC(=O)C2CC2)n1 [Example I-246] | 4.37 | 83% | 100% | 100% | 100% |  | 4.32 |  |  |  |  |  |  |  |
| N#Cc1ccc(CNC(=O)c2cc(-c3ccc(OC(F)(F)C(F)F)cc3)cc(NC(=O)C3CC3)n2)cc1 [Example I-153] |  | 100% | 100% | 100% | 100% | 3.48 |  | 3.60 |  |  |  |  |  |  |
| N#Cc1ccc(CNC(=O)c2cc(-c3ccc(OC(F)(F)F)cc3)cc(NC(=O)CC(F)(F)F)n2)cc1 [Example I-241] | 3.90 |  | 100% | 100% | 100% |  | 3.96 |  |  |  |  |  |  |  |
| N#Cc1ccc(CNC(=O)c2cc(-c3ccc(Br)c(F)c3)cc(NC(=O)C3CC3)n2)cc1 [Example I-262] | 3.75 | 100% | 100% | 100% | 100% |  | 3.73 |  |  |  |  |  |  |  |
| N#Cc1ccc(/C=N/NC(=O)c2cc(-c3ccc(OC(F)(F)F)cc3)cc(NC(=O)C3CC3)n2)cc1 [Example I-252, N-(6-{[(2E)-2-(4-Cyanobenzylidene)hydrazino]carbonyl}-4-[4-(trifluoromethoxy)phenyl]pyridin-2-yl)cyclopropanecarboxamide] | 3.88 |  |  |  |  |  | 3.83 |  | 3.88 | 3.83 | 100% | 83% | 100% |  |
| CC(NC(=O)c1cc(-c2ccc(C(F)(F)F)cc2)cc(N(C(=O)C2CC2)C(=O)C2CC2)n1)c1ccc(C#N)cc1 (stereo not shown) [Example I-039] | 4.36 | 100% | 100% | 100% | 100% | 4.31 |  |  |  |  |  |  |  |  |
| O=C(NCc1ccc(Cl)cc1F)c1cc(-c2ccc(OC(F)(F)F)cc2)cc(NC(=O)C2CC2)n1 [Example I-067] | 4.78 |  | 100% | 100% | 100% | 4.60 |  |  |  |  |  |  |  |  |
| N#Cc1ccc(CNC(=O)c2cc(-c3ccc(OC(F)(F)C(F)C(F)(F)F)cc3)cc(NC(=O)C3CC3)n2)cc1 (stereo not shown) [Example I-254] | 4.03 | 100% | 100% | 83% | 100% |  | 3.98 |  |  |  |  |  |  |  |
| N#Cc1ccc(CNC(=O)c2cc(-c3ccc(C(F)(F)C(F)(F)F)c(F)c3)cc(NC(=O)C3CC3)n2)c(F)c1 [Example I-251] | 4.45 | 83% | 100% | 100% | 100% |  | 4.38 |  |  |  |  |  |  |  |
| N#Cc1ccc(CNC(=O)c2cc(-c3ccc(OC(F)(F)F)cc3)cc(NC(=O)C3CC3)n2)nc1 [Example I-106] | 3.42 | 100% |  | 80% | 100% | 3.33 |  |  |  |  |  |  |  |  |
| CC(C)C(=O)Nc1cc(-c2ccc(C(F)(F)F)cc2)cc(C(=O)NCc2cc(F)c(C#N)cc2F)n1 [Example I-071] | 4.23 |  | 83% | 100% | 100% | 4.08 |  |  |  |  |  |  |  |  |
| COC1(NC(=O)c2cc(-c3ccc(C(F)(F)C(F)(F)F)c(F)c3)cc(NC(=O)C3CC3)n2)CC1 [Example I-244] | 4.08 | 100% | 100% | 100% | 100% |  | 4.08 |  |  |  |  |  |  |  |
| N#Cc1ccc(CNC(=O)c2cc(-c3ccc(C(F)(F)F)cc3)cc(NC(=O)CC3CC3)n2)cc1 [Example I-055] | 3.92 |  | 100% | 100% | 100% | 3.82 |  |  |  |  |  |  |  |  |
| CC(C)ONC(=O)c1cc(-c2ccc(OC(F)(F)F)cc2)cc(NC(=O)C2CC2)n1 [Example I-237, 6-[(Cyclopropylcarbonyl)amino]-N-isopropoxy-4-[4-(trifluoromethoxy)phenyl]pyridine-2-carboxamide] | 3.50 |  |  |  |  |  | 3.45 |  | 3.5 | 3.45 | 83% |  | 100% |  |
| C[C@H](NC(=O)c1cc(-c2ccc(C(F)(F)F)cc2)cc(NC(=O)C2CC2)n1)c1ccc(C(F)(F)F)cc1 [Example I-060] | 4.89 |  | 100% | 83% | 100% | 4.82 |  |  |  |  |  |  |  |  |
| O=C(NCc1ccc([N+](=O)[O-])s1)c1cc(-c2ccc(OC(F)(F)F)cc2)cc(NC(=O)C2CC2)n1 [Example I-240] | 4.10 |  | 100% | 83% | 100% |  | 4.04 |  |  |  |  |  |  |  |
| CC(NC(=O)c1cc(-c2ccc(C(F)(F)F)cc2)cc(NC(=O)C2CC2)n1)C1CC1 (stereo not shown) [Example I-031] | 4.17 |  | 100% |  | 100% | 4.06 |  |  |  |  |  |  |  |  |
| N#Cc1ccc(CNC(=O)c2cc(-c3ccc(Cl)cc3)cc(NC(=O)C3CC3)n2)cc1 [Example I-020, 4-(4-Chlorophenyl)-N-(4-cyanobenzyl)-6-[(cyclopropylcarbonyl)amino]pyridine-2-carboxamide] |  |  |  |  |  | 3.54 |  |  |  | 3.54 | 100% |  | 100% | 3.6 |
